How the values were obtained:
Experiment in all cases: Cerep SafetyScreen-87
Conditions in all cases: n=2
PPARγ = biological target: T1, PPARγ (Homo sapiens, UniProt P37231); type: binding
T1 construct: purchased Eurofins Cerep/Panlabs SafetyScreen-87

[1] = biological target: T2, Protein Tyrosine Kinase, Insulin Receptor (Homo sapiens, UniProt P06213); type: biochemical
T2 construct: purchased Eurofins Cerep/Panlabs SafetyScreen-87

[2] = biological target: T3, Serotonin (5-Hydroxytryptamine) 5-HT1B (Homo sapiens, UniProt P28222); type: binding
T3 construct: purchased Eurofins Cerep/Panlabs SafetyScreen-87
T3 sequence (P28222 whole entry): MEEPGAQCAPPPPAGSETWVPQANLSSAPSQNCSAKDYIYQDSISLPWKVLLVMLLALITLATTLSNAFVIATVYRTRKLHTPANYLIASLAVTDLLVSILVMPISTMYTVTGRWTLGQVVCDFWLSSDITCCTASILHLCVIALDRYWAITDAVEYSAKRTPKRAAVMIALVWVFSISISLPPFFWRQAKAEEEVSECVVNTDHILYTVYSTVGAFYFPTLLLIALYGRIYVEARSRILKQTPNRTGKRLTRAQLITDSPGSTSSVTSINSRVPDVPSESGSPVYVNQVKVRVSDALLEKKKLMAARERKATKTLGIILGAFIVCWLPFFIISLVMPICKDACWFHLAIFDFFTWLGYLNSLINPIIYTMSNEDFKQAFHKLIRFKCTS

Opiate µ (OP3, MOP) = biological target: T4, Opiate µ (OP3, MOP) (Homo sapiens, UniProt P35372); type: binding
T4 construct: purchased Eurofins Cerep/Panlabs SafetyScreen-87
T4 sequence (P35372 whole entry): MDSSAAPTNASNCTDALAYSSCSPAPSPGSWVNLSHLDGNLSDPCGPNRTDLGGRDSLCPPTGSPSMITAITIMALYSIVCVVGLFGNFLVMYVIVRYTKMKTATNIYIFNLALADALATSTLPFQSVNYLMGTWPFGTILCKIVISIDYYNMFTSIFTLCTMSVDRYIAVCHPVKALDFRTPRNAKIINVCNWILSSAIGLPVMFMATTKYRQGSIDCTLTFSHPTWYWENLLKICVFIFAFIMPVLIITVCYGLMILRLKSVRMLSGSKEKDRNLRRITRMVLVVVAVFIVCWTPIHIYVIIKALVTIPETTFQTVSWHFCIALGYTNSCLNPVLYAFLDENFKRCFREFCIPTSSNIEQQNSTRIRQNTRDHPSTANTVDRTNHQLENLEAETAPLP

[3] = biological target: T5, Platelet Activating Factor (PAF) (Homo sapiens, UniProt P25105); type: binding
T5 construct: purchased Eurofins Cerep/Panlabs SafetyScreen-87

Dopamine D1 = biological target: T6, Dopamine D1 (Homo sapiens, UniProt P21728); type: binding
T6 construct: purchased Eurofins Cerep/Panlabs SafetyScreen-87
T6 sequence (P21728 whole entry): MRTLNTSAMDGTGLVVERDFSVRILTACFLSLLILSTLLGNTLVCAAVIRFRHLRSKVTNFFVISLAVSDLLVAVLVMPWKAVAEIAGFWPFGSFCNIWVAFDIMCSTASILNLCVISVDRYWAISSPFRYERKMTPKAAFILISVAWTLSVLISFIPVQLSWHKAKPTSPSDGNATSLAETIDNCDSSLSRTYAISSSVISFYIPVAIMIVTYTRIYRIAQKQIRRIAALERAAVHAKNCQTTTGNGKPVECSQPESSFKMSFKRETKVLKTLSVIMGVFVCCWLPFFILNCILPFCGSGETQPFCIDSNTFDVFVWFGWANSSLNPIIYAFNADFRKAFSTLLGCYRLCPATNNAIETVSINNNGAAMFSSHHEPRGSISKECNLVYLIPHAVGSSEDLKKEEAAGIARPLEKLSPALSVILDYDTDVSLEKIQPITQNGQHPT

Dopamine D2L = biological target: T7, Dopamine D2L (Homo sapiens, UniProt P14416); type: binding
T7 construct: purchased Eurofins Cerep/Panlabs SafetyScreen-87

Monoamine Oxidase MAO-A = biological target: T8, Monoamine Oxidase MAO-A (Homo sapiens, UniProt P21397); type: biochemical
T8 construct: purchased Eurofins Cerep/Panlabs SafetyScreen-87
T8 sequence (P21397 whole entry): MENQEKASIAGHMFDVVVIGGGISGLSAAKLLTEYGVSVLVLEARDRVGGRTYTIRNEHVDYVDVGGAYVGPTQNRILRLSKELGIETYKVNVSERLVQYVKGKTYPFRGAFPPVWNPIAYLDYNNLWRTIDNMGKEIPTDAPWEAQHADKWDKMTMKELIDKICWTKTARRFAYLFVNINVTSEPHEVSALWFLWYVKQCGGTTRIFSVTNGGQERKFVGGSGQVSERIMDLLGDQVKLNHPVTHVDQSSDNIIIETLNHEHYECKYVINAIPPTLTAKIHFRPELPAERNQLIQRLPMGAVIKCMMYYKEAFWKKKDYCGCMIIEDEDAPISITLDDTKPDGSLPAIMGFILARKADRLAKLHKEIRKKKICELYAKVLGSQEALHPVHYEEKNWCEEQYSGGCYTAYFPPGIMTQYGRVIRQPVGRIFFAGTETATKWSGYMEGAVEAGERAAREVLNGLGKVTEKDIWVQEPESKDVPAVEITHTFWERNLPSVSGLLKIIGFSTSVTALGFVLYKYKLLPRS

Endothelin ETA = biological target: T9, Endothelin ETA (Homo sapiens, UniProt P25101); type: binding
T9 construct: purchased Eurofins Cerep/Panlabs SafetyScreen-87

Adrenergic α1D = biological target: T10, Adrenergic α1D (Homo sapiens, UniProt P25100); type: binding
T10 construct: purchased Eurofins Cerep/Panlabs SafetyScreen-87
T10 sequence (P25100 whole entry): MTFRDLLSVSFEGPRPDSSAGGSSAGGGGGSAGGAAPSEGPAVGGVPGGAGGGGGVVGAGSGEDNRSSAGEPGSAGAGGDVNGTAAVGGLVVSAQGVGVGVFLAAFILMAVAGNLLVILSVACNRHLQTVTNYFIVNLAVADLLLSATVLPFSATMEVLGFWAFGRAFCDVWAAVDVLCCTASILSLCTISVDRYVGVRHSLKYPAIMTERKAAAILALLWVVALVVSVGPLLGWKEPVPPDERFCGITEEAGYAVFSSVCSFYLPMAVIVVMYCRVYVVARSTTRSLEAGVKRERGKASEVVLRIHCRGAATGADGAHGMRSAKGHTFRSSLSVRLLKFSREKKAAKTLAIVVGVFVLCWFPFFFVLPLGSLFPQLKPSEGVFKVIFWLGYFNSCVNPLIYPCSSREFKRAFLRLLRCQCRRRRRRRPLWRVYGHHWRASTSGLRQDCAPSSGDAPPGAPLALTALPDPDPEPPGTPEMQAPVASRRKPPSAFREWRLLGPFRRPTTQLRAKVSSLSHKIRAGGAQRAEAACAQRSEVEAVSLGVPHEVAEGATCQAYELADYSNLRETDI

[4] = biological target: T11, Protein Tyrosine Kinase, LCK (Homo sapiens, UniProt P06239); type: biochemical
T11 construct: purchased Eurofins Cerep/Panlabs SafetyScreen-87

Adrenergic α1A = biological target: T12, Adrenergic α1A (Rattus norvegicus, UniProt P43140); type: binding
T12 construct: purchased Eurofins Cerep/Panlabs SafetyScreen-87
T12 sequence (P43140 whole entry): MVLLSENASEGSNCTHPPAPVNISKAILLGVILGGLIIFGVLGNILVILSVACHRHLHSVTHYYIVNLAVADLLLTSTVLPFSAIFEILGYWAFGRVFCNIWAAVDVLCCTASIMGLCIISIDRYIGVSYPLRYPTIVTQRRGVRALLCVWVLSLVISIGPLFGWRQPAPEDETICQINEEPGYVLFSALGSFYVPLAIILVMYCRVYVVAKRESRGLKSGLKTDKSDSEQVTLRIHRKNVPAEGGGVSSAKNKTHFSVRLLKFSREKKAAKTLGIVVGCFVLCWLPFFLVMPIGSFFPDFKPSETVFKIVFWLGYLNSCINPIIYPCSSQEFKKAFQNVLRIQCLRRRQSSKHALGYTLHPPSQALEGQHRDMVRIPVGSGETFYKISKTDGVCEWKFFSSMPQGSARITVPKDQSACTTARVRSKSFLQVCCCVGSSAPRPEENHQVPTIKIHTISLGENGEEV

[5] = biological target: T13, Serotonin (5-Hydroxytryptamine) 5-HT2A (Homo sapiens, UniProt P28223); type: binding
T13 construct: purchased Eurofins Cerep/Panlabs SafetyScreen-87
T13 sequence (P28223 whole entry, looked up): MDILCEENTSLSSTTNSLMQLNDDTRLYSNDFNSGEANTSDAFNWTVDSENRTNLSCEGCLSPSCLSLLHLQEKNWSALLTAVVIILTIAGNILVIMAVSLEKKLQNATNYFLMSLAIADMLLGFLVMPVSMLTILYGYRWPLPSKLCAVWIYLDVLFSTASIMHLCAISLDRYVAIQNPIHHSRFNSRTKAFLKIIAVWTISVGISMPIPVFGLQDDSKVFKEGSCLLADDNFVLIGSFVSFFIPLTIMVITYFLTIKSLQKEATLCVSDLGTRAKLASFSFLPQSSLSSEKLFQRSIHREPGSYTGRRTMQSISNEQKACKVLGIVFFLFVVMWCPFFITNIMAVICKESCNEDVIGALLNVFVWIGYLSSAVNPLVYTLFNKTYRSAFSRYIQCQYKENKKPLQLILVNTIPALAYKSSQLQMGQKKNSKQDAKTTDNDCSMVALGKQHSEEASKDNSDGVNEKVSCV

Muscarinic M3 = biological target: T14, Muscarinic M3 (Homo sapiens, UniProt P20309); type: binding
T14 construct: purchased Eurofins Cerep/Panlabs SafetyScreen-87
T14 sequence (P20309 whole entry): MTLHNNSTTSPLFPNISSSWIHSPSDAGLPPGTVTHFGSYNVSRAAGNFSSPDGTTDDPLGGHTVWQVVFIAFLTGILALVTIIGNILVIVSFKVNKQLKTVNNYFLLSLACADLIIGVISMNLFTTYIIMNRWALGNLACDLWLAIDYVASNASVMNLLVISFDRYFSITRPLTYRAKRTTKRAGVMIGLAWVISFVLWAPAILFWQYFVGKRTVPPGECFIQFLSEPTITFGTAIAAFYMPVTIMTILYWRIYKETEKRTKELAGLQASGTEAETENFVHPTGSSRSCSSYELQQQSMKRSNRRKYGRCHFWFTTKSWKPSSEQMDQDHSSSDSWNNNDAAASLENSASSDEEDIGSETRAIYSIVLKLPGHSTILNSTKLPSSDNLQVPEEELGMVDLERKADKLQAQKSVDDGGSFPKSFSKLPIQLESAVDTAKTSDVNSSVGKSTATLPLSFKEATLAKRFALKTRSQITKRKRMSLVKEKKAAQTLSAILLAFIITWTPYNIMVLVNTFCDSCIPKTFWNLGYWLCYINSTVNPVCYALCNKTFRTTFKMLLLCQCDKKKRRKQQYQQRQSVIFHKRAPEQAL

Angiotensin AT1 = biological target: T15, Angiotensin AT1 (Homo sapiens, UniProt P30556); type: binding
T15 construct: purchased Eurofins Cerep/Panlabs SafetyScreen-87
T15 sequence (P30556 whole entry): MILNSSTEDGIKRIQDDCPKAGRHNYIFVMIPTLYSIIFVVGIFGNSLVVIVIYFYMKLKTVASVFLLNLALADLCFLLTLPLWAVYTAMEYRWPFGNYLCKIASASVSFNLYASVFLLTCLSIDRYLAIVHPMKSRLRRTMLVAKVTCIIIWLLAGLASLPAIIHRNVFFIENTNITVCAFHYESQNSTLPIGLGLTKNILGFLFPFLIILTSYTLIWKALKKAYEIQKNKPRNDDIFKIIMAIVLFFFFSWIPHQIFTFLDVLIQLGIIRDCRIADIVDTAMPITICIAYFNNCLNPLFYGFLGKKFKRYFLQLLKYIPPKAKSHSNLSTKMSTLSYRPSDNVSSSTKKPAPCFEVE

T1 sequence (P37231 whole entry): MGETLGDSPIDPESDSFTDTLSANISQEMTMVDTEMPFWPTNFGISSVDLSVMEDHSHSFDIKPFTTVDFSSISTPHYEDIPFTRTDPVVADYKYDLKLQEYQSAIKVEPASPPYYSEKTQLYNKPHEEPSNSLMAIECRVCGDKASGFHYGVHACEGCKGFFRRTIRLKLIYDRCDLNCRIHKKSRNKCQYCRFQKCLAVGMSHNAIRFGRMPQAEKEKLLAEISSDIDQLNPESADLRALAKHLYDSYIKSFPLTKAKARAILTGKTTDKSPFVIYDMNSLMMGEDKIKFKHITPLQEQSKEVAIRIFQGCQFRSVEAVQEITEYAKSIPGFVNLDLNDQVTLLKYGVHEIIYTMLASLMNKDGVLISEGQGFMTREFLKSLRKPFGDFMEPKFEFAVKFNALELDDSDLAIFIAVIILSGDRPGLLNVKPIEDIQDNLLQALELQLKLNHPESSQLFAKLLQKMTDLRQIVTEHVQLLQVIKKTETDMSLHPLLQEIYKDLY

Structure (SMILES): CCN1CCN(Cc2ccc3cc(C(=O)Nc4cc(NC(=O)c5ccc6c(c5)OCCO6)ccc4F)ccc3n2)CC1 [Compound 22, N-(5-(2,3-Dihydrobenzo[b][1,4]dioxine-6-carboxamido)-2-fluorophenyl)-2-((4-ethylpiperazin-1-yl)methyl)quinoline-6-carboxamide]
- inhibition at 10 µM (PPARγ): 11%
- inhibition at 10 µM [1]: -7%
- inhibition at 10 µM [2]: 43%
- inhibition at 10 µM (Opiate µ (OP3, MOP)): 44%
- inhibition at 10 µM (Dopamine D1): 41%
- inhibition at 10 µM (Dopamine D2L): 20%
- inhibition at 10 µM (Monoamine Oxidase MAO-A): 77%
- inhibition at 10 µM (Endothelin ETA): -2%
- inhibition at 10 µM (Adrenergic α1D): 25%
- inhibition at 10 µM [4]: -8%
- inhibition at 10 µM (Adrenergic α1A): 38%
- inhibition at 10 µM [5]: 64%
- inhibition at 10 µM (Muscarinic M3): 30%
- inhibition at 10 µM (Angiotensin AT1): 1%
